The results in this text go back to ChEMBL document CHEMBL3758163, “Extended structure-activity study of thienopyrimidine-based EGFR inhibitors with evaluation of drug-like properties” (Eur J Med Chem, 2016).

The target in data set [1] is Epidermal growth factor receptor (Homo sapiens, UniProt P00533). The data set can be described thus: Inhibition of EGFR (unknown origin) by Z -LYTE assay.
The nature of data set [2]: Intrinsic clearance in human liver microsomes at 3 uM by LC-MS/MS analysis. The conditions noted are these: read-out: CLH. The class given is ADME. Background: Liver microsomes are vesicles of endoplasmic reticulum, rich in cytochrome P450 enzymes.
Data set [3] is described as follows: Aqueous solubility of compound in 0.01 M PBS buffer at pH 7.4 after 2 hrs by turbidimetric assay. The format is physicochemical.
Data set [4] can be described thus: Half-life in human liver microsomes at 3 uM by LC-MS/MS analysis. The class given is ADME.
Data set [5] is described as follows: in vitro. The conditions noted are these: human, Caco-2.
Description: Efflux ratio of permeability from basolateral to apical side over apical to basolateral side in human Caco2 cells at 10 uM by LC-MS/MS analysis
Data set [6] can be described thus: Toxicity in zebrafish embryo assessed as survival for 3.5 days. The conditions noted are these: in vivo. The class given is organism-based, Danio rerio.
A short description of data set [7]: Toxicity in zebrafish embryo assessed as morphological defects for 3.5 days. The format is organism-based, Danio rerio.
Data set [8] is filed under the species Danio rerio. Put plainly: Toxicity in zebrafish embryo assessed mortality after 50 to 70 hrs. The following applies: in vivo. The class given is organism-based.
Data set [9] relates to Danio rerio. The data set can be described thus: Toxicity in zebrafish embryo assessed as cardiac oedema. The format is organism-based. The conditions noted are these: in vivo.
The species named for data set [10] is Danio rerio. Put plainly: Toxicity in zebrafish embryo assessed as blood circulation defects. The format is organism-based. The following applies: in vivo.
For data set [11], the species on record is Danio rerio. Put plainly: Toxicity in zebrafish embryo assessed as kinked tail. The conditions noted are these: in vivo. The format is organism-based.
Data set [12] is filed under the species Danio rerio. Put plainly: Toxicity in zebrafish embryo assessed mortality measured for 24 hrs. The conditions noted are these: in vivo. The format is organism-based.
The species named for data set [13] is Danio rerio. The data set can be described thus: Toxicity in zebrafish embryo assessed as effect on morphology at <12.5 uM. The class given is organism-based. The conditions noted are these: in vivo.

pIC50: −log10 of the molar value. In brackets after ≈: the same amount, converted by molar mass.

Epidermal growth factor receptor, sequence (P00533 whole entry): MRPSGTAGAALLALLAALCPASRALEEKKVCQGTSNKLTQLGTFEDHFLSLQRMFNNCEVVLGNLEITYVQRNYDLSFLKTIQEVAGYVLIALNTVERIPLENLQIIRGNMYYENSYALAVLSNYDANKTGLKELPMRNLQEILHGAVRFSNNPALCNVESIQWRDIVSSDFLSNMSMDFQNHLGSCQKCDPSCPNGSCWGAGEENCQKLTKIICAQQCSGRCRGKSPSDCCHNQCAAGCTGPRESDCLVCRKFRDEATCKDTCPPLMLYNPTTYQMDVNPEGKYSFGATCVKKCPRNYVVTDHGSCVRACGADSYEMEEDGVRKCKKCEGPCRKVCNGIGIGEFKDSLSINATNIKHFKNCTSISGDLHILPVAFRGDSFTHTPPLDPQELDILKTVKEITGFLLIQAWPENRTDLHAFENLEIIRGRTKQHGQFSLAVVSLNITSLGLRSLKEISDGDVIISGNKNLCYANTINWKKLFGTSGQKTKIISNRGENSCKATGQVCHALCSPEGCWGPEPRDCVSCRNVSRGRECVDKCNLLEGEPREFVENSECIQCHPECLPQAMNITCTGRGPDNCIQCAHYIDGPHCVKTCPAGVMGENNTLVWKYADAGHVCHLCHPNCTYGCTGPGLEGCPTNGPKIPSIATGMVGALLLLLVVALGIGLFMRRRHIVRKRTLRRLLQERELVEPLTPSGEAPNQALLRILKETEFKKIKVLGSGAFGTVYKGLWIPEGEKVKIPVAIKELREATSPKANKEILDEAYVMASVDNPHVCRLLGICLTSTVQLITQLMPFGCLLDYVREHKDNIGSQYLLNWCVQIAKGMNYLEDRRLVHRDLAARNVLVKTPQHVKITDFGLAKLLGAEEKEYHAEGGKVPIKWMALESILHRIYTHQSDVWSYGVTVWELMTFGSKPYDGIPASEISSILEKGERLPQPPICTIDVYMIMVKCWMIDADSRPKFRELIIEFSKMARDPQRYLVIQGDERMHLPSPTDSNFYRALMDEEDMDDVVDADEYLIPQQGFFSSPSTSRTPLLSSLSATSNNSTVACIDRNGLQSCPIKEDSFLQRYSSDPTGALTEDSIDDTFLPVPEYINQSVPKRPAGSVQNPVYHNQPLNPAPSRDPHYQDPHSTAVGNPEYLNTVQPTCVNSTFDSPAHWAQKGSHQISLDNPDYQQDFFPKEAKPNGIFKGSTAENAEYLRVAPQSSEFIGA

For `COc1cc(C(=O)NCCN(C)C)ccc1-c1cc2c(N[C@H](C)c3ccccc3)ncnc2s1`, the pIC50 (commonly −log10 of the IC50, conventionally taken in molar units) in data set [1] was 9.30. For the same compound, the microsomal CLint at 3 µM in data set [2] came out at 6.1 µL/min/mg. Besides, in data set [3], the kinetic solubility – broadly, the concentration staying in solution when a stock, usually in DMSO, is diluted into the medium – at 2 h is more than 100 µM. Besides, the half-life (commonly how long it takes for the measured level to halve) at 3 µM in data set [4] was determined as 3.78 h. For the same compound, the efflux ratio – broadly, the permeability from basolateral to apical divided by that in the opposite direction, in the common usage – at 10 µM in data set [5] was found to be 18.

`C[C@@H](Nc1ncnc2sc(-c3cccc(C(=O)O)c3)cc12)c1ccccc1`: in data set [1], the pIC50 was 8.10.

`COc1cccc(-c2cc3c(N[C@H](C)c4ccccc4)ncnc3s2)c1OC`: in data set [1], the pIC50 is 7.89.

With `COc1cccc(OC)c1-c1cc2c(N[C@H](C)c3ccccc3)ncnc2s1`, the pIC50 in data set [1] is 8.70. Compared with the last compound, the pIC50 is 0.81 log units higher.

For the compound `COc1cc(C(N)=O)ccc1-c1cc2c(N[C@H](C)c3ccccc3)ncnc2s1`, the negative-log IC50 (pIC50) in data set [1] is 8.70.

On to `C[C@@H](Nc1ncnc2sc(-c3ccc(C(N)=O)cc3)cc12)c1ccccc1`, for which, in [1], the pIC50 was 8.15.

With `COC(=O)c1cc(OC)c(-c2cc3c(N[C@H](C)c4ccccc4)ncnc3s2)c(OC)c1`, the pIC50 in data set [1] was 8.40.

`COC(=O)c1ccc(-c2cc3c(N[C@H](C)c4ccccc4)ncnc3s2)c(OC)c1` gave a pIC50 in data set [1] of 7.70. This pIC50 is 0.70 log units lower than that of the compound before.

In turn, `C[C@@H](Nc1ncnc2sc(-c3cccc(C(N)=O)c3)cc12)c1ccccc1` showed a pIC50 in [1] of 8.30.

For the compound `COc1ccc(C=O)cc1-c1cc2c(N[C@H](C)c3ccccc3)ncnc2s1`, the pIC50 in [1] was 8.52.

On to `COC(=O)c1cccc(-c2cc3c(N[C@H](C)c4ccccc4)ncnc3s2)c1OC`, for which the negative logarithm of the IC50 (pIC50) in data set [1] was 8.05.

With `OCc1ccc(-c2cc3c(NCc4ccccc4)ncnc3s2)cc1`, the pIC50 in data set [1] was 7.32. Compared with the last compound, the pIC50 is 0.73 log units lower.

As to `OCc1ccc(-c2cc3c(Nc4ccccc4)ncnc3s2)cc1`, the pIC50 in [1] is 7.68. Compared with the last compound, the pIC50 is 0.36 log units higher.

The compound `COc1c(C(=O)NCCN(C)C)cccc1-c1cc2c(N[C@H](C)c3ccccc3)ncnc2s1` had a pIC50 in data set [1] of 8.52.

In turn, `COc1ccc(CO)cc1-c1cc2c(N[C@H](C)c3ccccc3)ncnc2s1` had a pIC50 in data set [1] of 8.30.

Turning to `COc1cc(F)ccc1-c1cc2c(N[C@H](C)c3ccccc3)ncnc2s1`, the pIC50 in [1] was 8.22.

`COC(=O)c1ccc(OC)c(-c2cc3c(N[C@H](C)c4ccccc4)ncnc3s2)c1` showed a pIC50 in data set [1] of 8.15.

In data set [1], `C[C@@H](Nc1ncnc2sc(-c3cccc(S(C)(=O)=O)c3)cc12)c1ccccc1` had a pIC50 of 7.59.

The compound `COc1c(C=O)cccc1-c1cc2c(N[C@H](C)c3ccccc3)ncnc2s1` showed a pIC50 in data set [1] of 7.68.

Turning to `COc1cc(C=O)ccc1-c1cc2c(NCc3ccccc3)ncnc2s1`, in data set [1], the pIC50 was 8.22.

Compound `C[C@@H](Nc1ncnc2sc(-c3cccc(C(=O)NCCN(C)C)c3)cc12)c1ccccc1` showed a pIC50 in [1] of 9.05. The compound also registered a solubility (kinetic) at 2 h in data set [3] of more than 100 µM. In addition, the half-life at 3 µM in data set [4] is 1.58 h. Further, the efflux ratio at 10 µM in data set [5] came to 8.9.

In [1], `C[C@@H](Nc1ncnc2sc(-c3ccc(S(C)(=O)=O)cc3)cc12)c1ccccc1` showed a pIC50 of 7.39.

`C[C@@H](Nc1ncnc2sc(-c3ccc(CO)cc3F)cc12)c1ccccc1` had a pIC50 in data set [1] of 7.89.

Compound `C[C@@H](Nc1ncnc2sc(-c3cccc(C=O)c3)cc12)c1ccccc1` gave a pIC50 in data set [1] of 8.22. Compared with the last compound, the pIC50 is 0.33 log units higher.

`OCc1cccc(-c2cc3c(N[C@H](CO)c4ccccc4)ncnc3s2)c1` showed a pIC50 in [1] of 8.52.

Turning to `OC[C@@H](Nc1ncnc2sc(-c3ccccc3)cc12)c1ccccc1`, the pIC50 in [1] was 8.05. Against the preceding compound, the pIC50 is 0.47 log units lower.

The compound `COc1cc(CO)ccc1-c1cc2c(NCc3ccccc3)ncnc2s1` showed a pIC50 in data set [1] of 8.30.

Take `C[C@@H](Nc1ncnc2sc(-c3ccc(C=O)cc3F)cc12)c1ccccc1`: in [1], the pIC50 was 7.23.

The compound `COc1c(CO)cccc1-c1cc2c(N[C@H](C)c3ccccc3)ncnc2s1` had a pIC50 in data set [1] of 8.82. Compared with the last compound, the pIC50 is 1.59 log units higher.

`COc1cccc(OC)c1-c1cc2c(N[C@H](CO)c3ccccc3)ncnc2s1` showed a pIC50 in [1] of 9.05. Also, the microsomal CLint at 3 µM in data set [2] stood at 41 µL/min/mg. This compound came in with a half-life at 3 µM in [4] of 0.567 h. The LC50 (in general, the concentration lethal to half of the exposed cells or organisms) at 84 h in data set [6] is 18000 nM. The EC50 (usually the concentration at which the effect is half-maximal) at 3.5 days in data set [7] turned out to be 12000 nM. For the same compound, the Activity entry in [8], in data set [9], in [10] and in data set [11] was “Toxic” throughout.

As for `COc1cc(C=O)ccc1-c1cc2c(Nc3ccc(F)c(Cl)c3)ncnc2s1`, in data set [1], the pIC50 was 8.30.

In [1], `COc1cc(C(=O)NCCN(C)C)cc(OC)c1-c1cc2c(N[C@H](C)c3ccccc3)ncnc2s1` had a pIC50 of 9.40. In addition, the microsomal CLint at 3 µM in [2] was found to be 9.7 µL/min/mg. The compound also came in with a kinetic solubility at 2 h in data set [3] of 65 µM (≈ 32.9 µg/mL). The half-life at 3 µM in data set [4] was 2.37 h. In data set [6], the LC50 at 84 h was 15000 nM. Moreover, the Activity result in data set [12] is “Toxic”; in data set [13], “Non-toxic”. Moreover, the efflux ratio at 10 µM in data set [5] amounted to 40.

Turning to `C[C@@H](Nc1ncnc2sc(-c3ccc(C(=O)O)cc3)cc12)c1ccccc1`, in data set [1], the pIC50 was 7.72.
